# Data taken from patent publication US10023652B2, “Method of targeting glycoproteins to treat cancer” (Board of Regents of the University of Nebraska, priority 2013, dated 2018).
# Test system: phosphorylation of Akt (S473)
# Test: Treatment of Capan-1 Cosmc KO cells with HER2 inhibitor, Akt phosphorylation by immunoblotting
# Format: cell-based, human
# Settings: 24 h, FIG. 9B
smiles,measurement,value
COCC(=O)NC/C=C/c1ccc2ncnc(Nc3ccc(Oc4ccc(C)nc4)c(C)c3)c2c1 [CP724714],phosphorylation of Akt,decreases the phosphorylation of Akt in a dose dependent manner
